Source: BigSolDB 2.1

C[N+](C)(C)CC(=O)[O-]
Conditions | solubility (mole fraction)
in ethanol, 282.95 K | 0.0264
in ethanol, 288.15 K | 0.0298
in ethanol, 293.65 K | 0.0336
in ethanol, 298.45 K | 0.0372
in ethanol, 303.05 K | 0.041
in isopropanol, 283.45 K | 0.00458
in isopropanol, 288.65 K | 0.0054
in isopropanol, 293.15 K | 0.00622
in isopropanol, 298.45 K | 0.0071
in isopropanol, 303.35 K | 0.00823
in methanol, 283.15 K | 0.117
in methanol, 288.15 K | 0.121
in methanol, 293.55 K | 0.126
in methanol, 298.25 K | 0.131
in methanol, 303.2 K | 0.136
in n-butanol, 283.45 K | 0.00812
in n-butanol, 288.7 K | 0.00964
in n-butanol, 293.05 K | 0.0109
in n-butanol, 298.35 K | 0.0125
in n-butanol, 302.9 K | 0.0142
in n-propanol, 282.85 K | 0.0134
in n-propanol, 288.15 K | 0.0154
in n-propanol, 293.55 K | 0.0177
in n-propanol, 298.23 K | 0.02
in n-propanol, 303.45 K | 0.0225
in water, 283.15 K | 0.184
in water, 288.25 K | 0.189
in water, 293.2 K | 0.194
in water, 298.35 K | 0.2
in water, 303.25 K | 0.206
